Experimental data reported in US10689391B2, “Isoxazole analogs as FXR agonists and methods of use thereof” (Enanta Pharmaceuticals, Inc., priority 2017, dated 2020).

Molecular target: T1, human FXR (NR1H4) (Homo sapiens, UniProt Q96RI1)
T1 construct: host or cells: CHO (Chinese hamster ovary) reporter cells
T1 sequence (Q96RI1 1-486): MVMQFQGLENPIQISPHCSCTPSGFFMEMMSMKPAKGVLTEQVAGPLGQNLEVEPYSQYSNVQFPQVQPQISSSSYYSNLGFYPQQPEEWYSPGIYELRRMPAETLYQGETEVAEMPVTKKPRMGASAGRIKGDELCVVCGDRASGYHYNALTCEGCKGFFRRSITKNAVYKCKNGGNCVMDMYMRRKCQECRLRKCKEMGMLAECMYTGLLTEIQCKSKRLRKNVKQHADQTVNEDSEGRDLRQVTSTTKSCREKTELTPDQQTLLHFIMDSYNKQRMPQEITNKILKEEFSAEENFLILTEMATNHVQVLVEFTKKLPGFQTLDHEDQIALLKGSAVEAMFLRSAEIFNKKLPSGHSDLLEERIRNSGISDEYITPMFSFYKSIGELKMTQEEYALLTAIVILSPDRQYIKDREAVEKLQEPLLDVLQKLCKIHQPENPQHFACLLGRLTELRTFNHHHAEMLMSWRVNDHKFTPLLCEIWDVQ
Assay: Human FXR (NR1H4) Assay (Gal4 promoter driven luciferase reporter, Indigo Bioscience kit IB00601); for Efficacy (%): normalized to CDCA set as 100%
Format: cell-based
Details: for EC50: CHO reporter cells expressing human NR1H4, luciferase, 22 hours incubation, potency ranges; for Emax: read-out: Efficacy (%)
Description: Human FXR (NR1H4) Assay Determination of a ligand mediated Gal4 promoter driven transactivation to quantify ligand binding mediated activation of FXR. FXR Reporter Assay kit purchased from Indigo Bioscience (Catalogue number: IB00601) to determine the potency and efficacy of compound developed by Enanta that can induce FXR activation. The principle application of this reporter assay system is to quantify functional activity of human FXR. The assay utilizes non-human mammalian cells, CHO (Chinese hamster ovary) cells engineered to express human NR1H4 protein (referred to as FXR). Reporter cells also incorporate the cDNA encoding beetle luciferase which catalyzes the substrates and yields photon emission. Luminescence intensity of the reaction is quantified using a plate-reading luminometer, Envision. Reporter Cells include the luciferase reporter gene functionally linked to an FXR responsive promoter. Thus, quantifying changes in luciferase expression in the treated reporter cells provides a sensitive surrogate measure of the changes in FXR activity. […] The assay is according to the manufacturer's instructions. […] Retrieve Reporter Cells from −80° C. storage. Perform a rapid thaw of the frozen cells by transferring a 10 ml volume of 37° C. cell recovery medium into the tube of frozen cells. Recap the tube of Reporter Cells and immediately place it in a 37° C. water bath for 5-10 minutes. Retrieve the tube of Reporter Cell Suspension from the water bath. Sanitize the outside surface of the tube with a 70% alcohol swab, and then transfer it into the cell culture hood. Dispense 90 μl of cell suspension into each well of the 96-well Assay Plate. Transfer the plate into 37° C. incubator, allowing the cells adherent to the bottom of the well. Dilute compounds in Dilution Plate (DP), and administrate to cells at Assay Plate (AP). DMSO content of the samples was kept at 0.2%. Cells were incubated for additional 22 hours before luciferase activities were measured. Thirty minutes before intending to quantify FXR activity, remove Detection Substrate and Detection Buffer from the refrigerator and place them in a low-light area so that they may equilibrate to room temperature. Remove the plate's lid and discard all media contents by ejecting it into an appropriate waste container. Gently tap the inverted plate onto a clean absorbent paper towel to remove residual droplets. Cells will remain tightly adhered to well bottoms. Add 100 μl of luciferase detection reagent to each well of the assay plate. Allow the assay plate to rest at room temperature for at least 5 minutes following the addition of LDR. Set the instrument (Envision) to perform a single 5 second “plate shake” prior to reading the first assay well. Read time may be 0.5 second (500 mSec) per well.

Structure (SMILES) | EC50 | Emax
CC(C)Oc1cc(C(=O)O)cc2sc(N[C@@H]3CO[C@H]4[C@@H]3OC[C@H]4OCc3c(-c4c(Cl)cccc4Cl)noc3C3CC3)nc12 [Example 19] | 0.2 to 1 µM | 82.3%
O=C(O)c1cc(F)c2nc(O[C@@H]3CO[C@H]4[C@@H]3OC[C@H]4OCc3c(-c4c(Cl)cccc4Cl)noc3C3CC3)sc2c1 [Example 5, 2-(((3R,3aR,6R,6aR)-6-((5-cyclopropyl-3-(2,6-dichlorophenyl)isoxazol-4-yl)methoxy)hexahydrofuro[3,2-b]furan-3-yl)oxy)-4-fluorobenzo[d]thiazole-6-carboxylic acid] | 0.03 to 0.2 µM | 55%
CC(C)Oc1cc(C(=O)O)cc2sc([C@]3(F)CO[C@@H]4[C@H](OCc5c(-c6c(Cl)cccc6Cl)noc5C5CC5)CO[C@@H]43)nc12 [Example 18] | 0.2 to 1 µM | 45%
CC(C)Oc1cc(C(=O)O)cc2sc(O[C@@H]3CO[C@H]4[C@@H]3OC[C@H]4OCc3c(-c4ccccc4OC(F)(F)F)noc3C3CC3)nc12 [Example 23] | < 0.03 µM | 103%
CC(C)Oc1cc(C(=O)O)cc2sc(N3CCN4C(=O)[C@H](OCc5c(-c6c(Cl)cccc6Cl)noc5C5CC5)C[C@H]4C3)nc12 [Example 30] | 0.03 to 0.2 µM | 70%
CC(C)Oc1cc(C(=O)O)cc2sc(N3C[C@H]4C[C@@H](NCc5c(-c6c(Cl)cccc6Cl)noc5C5CC5)C[C@H]4C3)nc12 [Example 28] | 0.2 to 1 µM | 57%
CC(C)Oc1cc(C(=O)NS(=O)(=O)C2(C)CC2)cc2sc(O[C@@H]3CO[C@H]4[C@@H]3OC[C@H]4OCc3c(-c4ccccc4OC(F)(F)F)noc3C3CC3)nc12 [Example 24] | 0.03 to 0.2 µM | 78%
CC(C)Oc1cc(C(=O)NS(=O)(=O)N2CCCC2)cc2sc(O[C@@H]3CO[C@H]4[C@@H]3OC[C@H]4OCc3c(-c4c(Cl)cccc4Cl)noc3C3CC3)nc12 [Example 10] | < 0.03 µM | 103%
O=C(O)c1ccc2nc(O[C@@H]3CO[C@H]4[C@@H]3OC[C@H]4OCc3c(-c4c(Cl)cccc4Cl)noc3C3CC3)sc2c1 [Example 14] | 0.03 to 0.2 µM | 67.5%
CC(C)Oc1cc(C(=O)NS(=O)(=O)N2CCCCC2)cc2sc(O[C@@H]3CO[C@H]4[C@@H]3OC[C@H]4OCc3c(-c4c(Cl)cccc4Cl)noc3C3CC3)nc12 [Example 13] | < 0.03 µM | 96.5%
CC(C)Oc1cc(C(=O)NS(=O)(=O)C2(C)CC2)cc2sc(O[C@@H]3CO[C@H]4[C@@H]3OC[C@H]4OCc3c(-c4c(Cl)cccc4Cl)noc3C3CC3)nc12 [Example 12] | 0.03 to 0.2 µM | 70%
O=C(O)c1cc(F)c2nc(O[C@@H]3CO[C@H]4[C@@H]3OC[C@H]4OCc3c(-c4ccccc4OC(F)(F)F)noc3C3CC3)sc2c1 [Example 6] | 0.03 to 0.2 µM | 56%
CC(C)Oc1cc(C(=O)O)cc2sc(N3C[C@H]4[C@@H](OCc5c(-c6c(Cl)cccc6Cl)noc5C5CC5)CO[C@H]4C3)nc12 [Example 26] | 0.2 to 1 µM | 7%
CC(C)Oc1cc(C(=O)O)cc2sc(N3CCN4C[C@@H](OCc5c(-c6c(Cl)cccc6Cl)noc5C5CC5)C[C@@H]4C3)nc12 [Example 20, 2-((7S,8aR)-7-((5-cyclopropyl-3-(2,6-dichlorophenyl)isoxazol-4-yl)methoxy)hexahydropyrrolo[1,2-a]pyrazin-2(1H)-yl)-4-isopropoxybenzo[d]thiazole-6-carboxylic acid] | 0.2 to 1 µM | 44%
CC(C)Oc1cc(C(=O)NS(=O)(=O)C2CC2)cc2sc(O[C@@H]3CO[C@H]4[C@@H]3OC[C@@H]4OCc3c(-c4c(Cl)cccc4Cl)noc3C3CC3)nc12 [Example 3, 2-(((3R,3aR,6S,6aR)-6-((5-cyclopropyl-3-(2,6-dichlorophenyl)isoxazol-4-yl)methoxy)hexahydrofuro[3,2-b]furan-3-yl)oxy)-N-(cyclopropylsulfonyl)-4-isopropoxybenzo[d]thiazole-6-carboxamide] | 0.2 to 1 µM | 33.5%
CC1(S(=O)(=O)NC(=O)c2ccc3nc(O[C@@H]4CO[C@H]5[C@@H]4OC[C@H]5OCc4c(-c5c(Cl)cccc5Cl)noc4C4CC4)sc3c2)CC1 [Example 8, 2-(((3R,3aR,6R,6aR)-6-((5-cyclopropyl-3-(2,6-dichlorophenyl)isoxazol-4-yl)methoxy)hexa hydrofuro[3,2-b]furan-3-yl)oxy)-N-((1-methylcyclopropyl)sulfonyl)benzo-[d]thiazole-6-carboxamide] | 0.2 to 1 µM | 20%
CC(C)Oc1cc(C(=O)O)cc2sc(N3CCN4C[C@H](OCc5c(-c6c(Cl)cccc6Cl)noc5C5CC5)C[C@@H]4C3)nc12 [Example 22, 2-((7R,8aR)-7-((5-cyclopropyl-3-(2,6-dichlorophenyl)isoxazol-4-yl)methoxy)hexahydropyrrolo[1,2-a]pyrazin-2(1H)-yl)-4-isopropoxybenzo[d]thiazole-6-carboxylic acid] | 0.03 to 0.2 µM | 82%
CC(C)Oc1cc(C(=O)O)cc2sc(N3CCN4C(=O)[C@@H](OCc5c(-c6c(Cl)cccc6Cl)noc5C5CC5)C[C@H]4C3)nc12 [Example 31] | 0.03 to 0.2 µM | 110%
O=C(O)c1ccc2nc(O[C@@H]3CO[C@H]4[C@@H]3OC[C@H]4OCc3c(-c4c(Cl)cccc4Cl)noc3C3CC3)ccc2c1 [Example 16] | 0.03 to 0.2 µM | 85%
CC(C)Oc1cc(C(=O)O)cc2sc(N3CCN4C(=O)[C@@H](OCc5c(-c6c(Cl)cccc6Cl)noc5C5CC5)C[C@@H]4C3)nc12 [Example 29] | > 1 µM | 21%
CC(C)Oc1cc(C(=O)O)cc2sc([C@@]3(O)CO[C@@H]4[C@H](OCc5c(-c6c(Cl)cccc6Cl)noc5C5CC5)CO[C@@H]43)nc12 [Example 17] | > 1 µM | 9%
CC(C)Oc1cc(C(=O)NS(=O)(=O)C2CC2)cc2sc(O[C@@H]3CO[C@H]4[C@@H]3OC[C@H]4OCc3c(-c4c(Cl)cccc4Cl)noc3C3CC3)nc12 [Example 11] | 0.03 to 0.2 µM | 57%
O=C(O)c1ccc2nc(O[C@@H]3CO[C@H]4[C@@H]3OC[C@@H]4OCc3c(-c4c(Cl)cccc4Cl)noc3C3CC3)sc2c1 [Example 4, 2-(((3R,3aR,6S,6aR)-6-((5-cyclopropyl-3-(2,6-dichlorophenyl)isoxazol-4-yl)methoxy)hexahydrofuro[3,2-b]furan-3-yl)oxy)benzo[d]thiazole-6-carboxylic acid] | 0.2 to 1 µM | 40%
CC(C)Oc1cc(C(=O)NS(=O)(=O)C2CC2)cc2sc(O[C@@H]3CO[C@H]4[C@@H]3OC[C@H]4OCc3c(-c4ccccc4OC(F)(F)F)noc3C3CC3)nc12 [Example 25] | 0.03 to 0.2 µM | 66%
CC(C)Oc1cc(C(=O)O)cc2sc(N3CCN4C[C@H](OCc5c(-c6c(Cl)cccc6Cl)noc5C5CC5)C[C@H]4C3)nc12 [Example 21] | 0.03 to 0.2 µM | 72%
O=C(NS(=O)(=O)C1CC1)c1ccc2nc(O[C@@H]3CO[C@H]4[C@@H]3OC[C@H]4OCc3c(-c4c(Cl)cccc4Cl)noc3C3CC3)sc2c1 [Example 9] | 0.2 to 1 µM | 5.5%
